Experimental data from ChEMBL document CHEMBL4028804, “The Necessary Nitrogen Atom: A Versatile High-Impact Design Element for Multiparameter Optimization” (J Med Chem, 2017).

Experiments:
Mu-type opioid receptor [1] = biological target: T1, Mu-type opioid receptor (Homo sapiens, UniProt P35372); test: Agonist activity at human mu-opioid receptor expressed in HEK293 cells coexpressing delta6-Galphaqi4-myr assessed as induction of intracellular calcium flux after 48 hrs by FLIPR assay; assay type: functional, cell-based
Mu-type opioid receptor [2] = biological target: T1, Mu-type opioid receptor; test: Displacement of [3H]-DAMGO from human HA-tagged mu-opioid receptor expressed in HEK293 cells after 90 mins by liquid scintillation counting analysis; assay type: cell-based
Mu-type opioid receptor [3] = biological target: T1, Mu-type opioid receptor; test: Agonist activity at human mu-opioid receptor expressed in HEK293 cell membranes after 1 hr by [35S]-GTPgammaS binding assay; assay type: functional

T1 sequence (P35372 whole entry): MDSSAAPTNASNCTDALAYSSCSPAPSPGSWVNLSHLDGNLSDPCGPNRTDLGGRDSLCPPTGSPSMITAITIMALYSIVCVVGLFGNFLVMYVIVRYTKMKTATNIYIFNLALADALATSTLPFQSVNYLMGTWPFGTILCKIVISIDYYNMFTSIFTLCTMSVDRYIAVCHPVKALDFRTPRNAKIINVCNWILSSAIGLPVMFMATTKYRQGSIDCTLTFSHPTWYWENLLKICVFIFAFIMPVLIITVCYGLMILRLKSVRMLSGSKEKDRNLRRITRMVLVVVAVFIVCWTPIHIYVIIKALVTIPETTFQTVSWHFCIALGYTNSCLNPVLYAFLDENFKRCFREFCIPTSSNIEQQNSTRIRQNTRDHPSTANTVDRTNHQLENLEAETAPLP

Which results are given for `O=C(N[C@@H]1CC[C@@]2(O)[C@H]3Cc4ccc(O)c5c4[C@@]2(CCN3CC2CC2)[C@H]1O5)c1ccc2ccccc2c1`?
EC50 (Mu-type opioid receptor [1]): > 1000 nM; Ki (Mu-type opioid receptor [2]): 0.0013 nM; EC50 (Mu-type opioid receptor [3]): 0.3 nM
